Data from patent publication US20260062437A1, “ANTIVIRAL COMPOUNDS” (priority 2022, published 2026).
“Also recorded” adds a separate entry of the source. Like-named read-outs stand apart in the source and are kept apart here.

How the values were obtained:
ZIKV [1] = test: Antiviral testing against ZIKV; assay type: cell-based, Zika Virus
West Nile Virus = test: Antiviral plaque assay with West Nile Virus; assay type: cell-based
HUH7 cells = test: Cytotoxicity assay (Alamar blue) in HUH7 cells; assay type: cell-based; details: for change in cell viability: over/after 5 days; for cytotoxicity / change in cell viability: after 2 or 5 days; for decrease in cell viability: after 5 days (HLB-0532246: at high concentrations)
Description: (§1) HUH7 and Vero cell lines were maintained in a humidified 5% CO2 environment at 37° C. HUH7 cells were cultured in DMEM (4500 mg/L “high glucose”+L-glutamine+25 mM HEPES-sodium pyruvate) supplemented with fetal bovine serum (10% FBS), penicillin (100 IU/mL), streptomycin ([…]), and 1% nonessential amino acids (NEAA). Vero cells were cultured in EMEM media supplemented with FBS (10% FBS), penicillin (100 IU/mL), and streptomycin (100 μg/mL). Cytotoxicity assays were done similarly to a previous report (J. Med. Chem. 2021, 64, 15429-15439). HUH7 or Vero cells were seeded at 2,000 cells/well in their appropriate cell culture media (50 μL) in 96-well clear plates and incubated for 24 hours. A DMSO solution of each individual compound was serially diluted (solution concentrations of 0.1, 0.5 and 1.0 mM were made) in the appropriate cell line media, and each solution (50 μL) was dosed to the cells (well volume total of 100 μL; final DMSO concentration of 0.5%). DMSO-only and no-cell control wells were dosed with a DMSO-media solution (50 μL of 1% DMSO in media) rather than compound. The cells were then incubated for 2 or 5 days. Two hours before the designated time point, Alamar blue (10 μL) was added to each well. At the time point, fluorescence data were measured using a BioTek Synergy H1 microplate reader. Cell viability was calculated by subtracting background fluorescence (no-cell control) from the measured fluorescence of each well. Wells with compounds were normalized to the DMSO-only control (100% viability) and no-cell controls. Each individual experiment was performed in groups of three technical replicates. For the reported Vero studies, cytotoxicity experiments were repeated in biological triplicate. The final cell viability percentage was calculated by averaging % viability from each of the biological replicates, and the uncertainty was calculated by propagating the standard deviations from each biological replicate (taking the square root of the sum of the squares of individual standard deviations).

Vero cells = test: Cytotoxicity assay (Alamar blue) in Vero cells; assay type: cell-based; details: for change in cell viability: over/after 5 days; for cytotoxicity / change in cell viability: after 2 or 5 days; for decrease in cell viability: after 5 days (HLB-0532246: at high concentrations)
Description: as §1

ZIKV [2] = details: cited from earlier work; for antiviral activity against ZIKV: previously tested
WNV = details: previously tested, cited from earlier work
polymerase of WNV = polymerase of WNV (West Nile virus, UniProt P06935); details: cited from earlier work
polymerase of WNV, sequence (P06935 2526-3430): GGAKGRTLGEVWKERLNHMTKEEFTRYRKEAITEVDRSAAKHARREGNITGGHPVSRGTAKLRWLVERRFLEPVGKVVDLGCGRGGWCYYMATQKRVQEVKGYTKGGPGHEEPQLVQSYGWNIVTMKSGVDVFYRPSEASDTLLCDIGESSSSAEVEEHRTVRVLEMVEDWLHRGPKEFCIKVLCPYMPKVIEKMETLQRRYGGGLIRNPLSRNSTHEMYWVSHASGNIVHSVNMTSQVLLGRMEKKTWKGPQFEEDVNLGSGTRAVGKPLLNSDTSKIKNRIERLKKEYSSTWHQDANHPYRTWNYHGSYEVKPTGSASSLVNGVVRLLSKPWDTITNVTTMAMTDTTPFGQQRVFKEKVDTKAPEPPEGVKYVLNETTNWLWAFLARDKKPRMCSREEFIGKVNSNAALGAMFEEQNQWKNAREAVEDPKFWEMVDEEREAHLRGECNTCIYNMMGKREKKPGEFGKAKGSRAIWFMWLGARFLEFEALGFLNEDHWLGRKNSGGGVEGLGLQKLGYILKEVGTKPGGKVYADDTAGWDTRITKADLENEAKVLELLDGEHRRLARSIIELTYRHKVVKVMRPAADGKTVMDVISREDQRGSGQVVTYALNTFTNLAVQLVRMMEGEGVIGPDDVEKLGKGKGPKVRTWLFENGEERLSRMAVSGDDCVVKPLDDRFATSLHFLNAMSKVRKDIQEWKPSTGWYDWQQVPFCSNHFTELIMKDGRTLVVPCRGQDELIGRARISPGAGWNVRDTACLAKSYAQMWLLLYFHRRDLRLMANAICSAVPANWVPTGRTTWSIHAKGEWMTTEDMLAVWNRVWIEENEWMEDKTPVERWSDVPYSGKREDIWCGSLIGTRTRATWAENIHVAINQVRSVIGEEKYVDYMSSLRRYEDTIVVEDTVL

[3] = molecular target: polymerase of hepatitis C (HCV) (Hepatitis C virus genotype 1a, UniProt P27958); details: cited from earlier work
polymerase of hepatitis C (HCV), sequence (P27958 2421-3011 limits assumed): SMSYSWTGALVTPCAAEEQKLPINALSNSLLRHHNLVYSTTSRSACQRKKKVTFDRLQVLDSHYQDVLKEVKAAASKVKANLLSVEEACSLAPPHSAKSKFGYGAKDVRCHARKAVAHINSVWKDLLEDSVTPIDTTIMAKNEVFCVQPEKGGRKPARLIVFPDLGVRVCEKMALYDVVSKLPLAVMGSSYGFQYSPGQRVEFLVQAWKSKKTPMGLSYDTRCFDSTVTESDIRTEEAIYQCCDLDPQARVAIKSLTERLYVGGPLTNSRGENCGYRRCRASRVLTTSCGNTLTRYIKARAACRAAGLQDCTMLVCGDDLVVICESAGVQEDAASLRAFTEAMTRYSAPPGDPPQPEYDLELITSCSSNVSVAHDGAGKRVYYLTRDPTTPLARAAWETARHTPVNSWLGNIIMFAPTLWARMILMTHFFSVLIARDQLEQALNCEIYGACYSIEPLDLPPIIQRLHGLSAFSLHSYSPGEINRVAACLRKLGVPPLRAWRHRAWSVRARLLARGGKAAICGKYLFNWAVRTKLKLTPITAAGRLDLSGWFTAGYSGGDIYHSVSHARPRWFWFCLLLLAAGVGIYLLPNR

polymerase of polio (PV) = polymerase of polio (PV) (Poliovirus type 1, UniProt P03300); details: cited from earlier work
polymerase of polio (PV), sequence (P03300 1749-2209 limits assumed): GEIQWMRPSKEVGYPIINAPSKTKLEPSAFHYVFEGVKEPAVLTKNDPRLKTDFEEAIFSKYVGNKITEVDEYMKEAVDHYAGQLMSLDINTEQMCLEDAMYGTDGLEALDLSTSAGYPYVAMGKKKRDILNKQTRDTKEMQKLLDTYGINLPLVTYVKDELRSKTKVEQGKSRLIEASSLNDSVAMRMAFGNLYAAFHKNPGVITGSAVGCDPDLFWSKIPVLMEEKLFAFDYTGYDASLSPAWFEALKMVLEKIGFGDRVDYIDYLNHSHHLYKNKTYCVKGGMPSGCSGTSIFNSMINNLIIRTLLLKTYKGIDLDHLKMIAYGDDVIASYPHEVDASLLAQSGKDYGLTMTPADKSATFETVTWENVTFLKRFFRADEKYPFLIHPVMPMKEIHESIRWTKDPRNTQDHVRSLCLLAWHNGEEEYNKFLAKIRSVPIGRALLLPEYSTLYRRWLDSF

polymerase of SARS-CoV-2 = polymerase of SARS-CoV-2 (Severe acute respiratory syndrome coronavirus 2, UniProt P0DTD1); details: cited from earlier work
[4] = molecular target: polymerase of dengue (DENV) (Dengue virus type 2, UniProt P29990); details: cited from earlier work
polymerase of dengue (DENV), sequence (P29990 2492-3391): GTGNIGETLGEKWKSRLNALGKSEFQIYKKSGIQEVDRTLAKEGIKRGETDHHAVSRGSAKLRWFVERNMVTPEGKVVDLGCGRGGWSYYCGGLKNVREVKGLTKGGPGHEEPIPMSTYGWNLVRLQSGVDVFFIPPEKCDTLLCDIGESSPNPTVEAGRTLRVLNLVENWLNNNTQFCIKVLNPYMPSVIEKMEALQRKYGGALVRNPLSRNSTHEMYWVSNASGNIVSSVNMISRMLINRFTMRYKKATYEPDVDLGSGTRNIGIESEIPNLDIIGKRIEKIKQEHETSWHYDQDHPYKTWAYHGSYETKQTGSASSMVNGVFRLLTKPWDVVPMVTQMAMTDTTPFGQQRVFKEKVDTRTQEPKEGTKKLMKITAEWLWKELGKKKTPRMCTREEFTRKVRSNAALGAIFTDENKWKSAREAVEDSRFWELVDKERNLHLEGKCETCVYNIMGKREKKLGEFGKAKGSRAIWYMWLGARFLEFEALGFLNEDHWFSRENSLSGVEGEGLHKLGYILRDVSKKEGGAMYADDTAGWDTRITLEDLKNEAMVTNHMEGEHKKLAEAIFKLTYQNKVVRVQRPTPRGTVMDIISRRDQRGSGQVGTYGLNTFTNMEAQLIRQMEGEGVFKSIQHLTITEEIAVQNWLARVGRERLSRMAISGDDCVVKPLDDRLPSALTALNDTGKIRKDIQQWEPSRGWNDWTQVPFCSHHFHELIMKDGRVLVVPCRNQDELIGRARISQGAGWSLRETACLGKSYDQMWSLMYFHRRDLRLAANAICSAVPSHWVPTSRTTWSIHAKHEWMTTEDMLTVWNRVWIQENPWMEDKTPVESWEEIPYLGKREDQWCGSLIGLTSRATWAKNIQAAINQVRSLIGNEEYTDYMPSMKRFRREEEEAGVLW

polymerase of ZIKV = polymerase of ZIKV (Zika virus, UniProt Q32ZE1); details: cited from earlier work
polymerase of ZIKV, sequence (Q32ZE1 2517-3419): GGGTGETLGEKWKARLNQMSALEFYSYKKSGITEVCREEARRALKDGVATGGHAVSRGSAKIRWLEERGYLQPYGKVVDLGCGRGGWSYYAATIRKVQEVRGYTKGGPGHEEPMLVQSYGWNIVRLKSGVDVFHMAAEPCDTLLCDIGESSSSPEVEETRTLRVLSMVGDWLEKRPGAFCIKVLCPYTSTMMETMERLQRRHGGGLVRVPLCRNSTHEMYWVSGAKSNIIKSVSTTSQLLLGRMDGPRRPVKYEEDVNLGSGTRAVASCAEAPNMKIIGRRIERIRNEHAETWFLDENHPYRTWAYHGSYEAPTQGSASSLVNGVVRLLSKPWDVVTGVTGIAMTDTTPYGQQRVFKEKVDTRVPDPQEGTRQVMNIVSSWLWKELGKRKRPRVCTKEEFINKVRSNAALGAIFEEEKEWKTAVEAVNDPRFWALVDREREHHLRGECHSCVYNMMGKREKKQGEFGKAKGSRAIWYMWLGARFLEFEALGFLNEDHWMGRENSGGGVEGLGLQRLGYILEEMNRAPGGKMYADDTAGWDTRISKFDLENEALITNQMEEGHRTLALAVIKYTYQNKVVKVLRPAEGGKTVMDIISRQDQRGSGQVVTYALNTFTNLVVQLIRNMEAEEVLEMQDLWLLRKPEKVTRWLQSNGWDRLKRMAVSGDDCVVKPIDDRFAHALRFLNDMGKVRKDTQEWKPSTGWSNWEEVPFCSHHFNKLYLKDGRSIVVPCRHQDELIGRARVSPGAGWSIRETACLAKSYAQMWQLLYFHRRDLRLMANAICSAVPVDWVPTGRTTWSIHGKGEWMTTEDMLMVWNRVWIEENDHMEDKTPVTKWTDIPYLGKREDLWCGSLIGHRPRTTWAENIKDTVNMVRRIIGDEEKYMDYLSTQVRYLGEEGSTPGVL

O=c1ccn([C@@H]2OC(CO)=C[C@@H]2O)c(=O)[nH]1 [HLB-0535069]
antiviral activity against ZIKV (ZIKV [1]): did not display antiviral activity | antiviral activity against West Nile Virus (West Nile Virus): no activity | change in cell viability (HUH7 cells): did not show a significant decrease in cell viability | change in cell viability (Vero cells): did not show a significant decrease in cell viability

Cc1cn([C@@H]2OC(CO[P@@](=O)(N[C@@H](C)C(=O)OC(C)C)Oc3ccccc3)=C[C@@H]2O)c(=O)[nH]c1=O [HLB-0535065]
antiviral activity against ZIKV (ZIKV [1]): no activity | antiviral activity against West Nile Virus (West Nile Virus): no activity | cell viability (HUH7 cells; by day 5): 50% | cytotoxicity / change in cell viability (Vero cells): did not show any cytotoxicity

Nc1ccn([C@@H]2OC(CO)=C[C@H]2O)c(=O)n1 [3′-deoxy-3′,4′-didehydro-cytidine]
ZIKV inhibitory activity (ZIKV [2]; cellular studies (Gizzi et al., Nature 2018)): only weak ZIKV inhibitory activity

CC(C)OC(=O)[C@H](C)N[P@](=O)(OCC1=C[C@H](O)[C@H](n2ccc(N)nc2=O)O1)Oc1ccccc1 [HLB-0532247]
cytotoxicity / change in cell viability (HUH7 cells): did not show any cytotoxicity | antiviral activity against ZIKV (ZIKV [2]; HUH7 cells): potent antiviral activity | antiviral activity against ZIKV (ZIKV [2]; Vero cells): potent antiviral activity | cytotoxicity / change in cell viability (Vero cells): did not show any cytotoxicity | antiviral activity against WNV (WNV; HUH7 cells): potent antiviral activity

CC(C)OC(=O)[C@H](C)N[P@](=O)(OCC1=C[C@H](O)[C@H](n2ccc(=O)[nH]c2=O)O1)Oc1ccccc1 [HLB-0532254]
antiviral activity against ZIKV (ZIKV [1]; at 1.0 mM): did not display antiviral activity | antiviral activity against ZIKV (ZIKV [1]; dosed at 0.1 mM): potent activity | antiviral activity against West Nile Virus (West Nile Virus): no activity; also recorded: not active | decrease in cell viability (HUH7 cells): 25% | decrease in cell viability (Vero cells): 10%

CC(C)OC(=O)[C@H](C)N[P@](=O)(OCC1=C[C@H](O)[C@H](n2cnc3c(=O)[nH]c(N)nc32)O1)Oc1ccccc1 [HLB-0535073]
antiviral activity against ZIKV (ZIKV [1]): Antiviral activity was observed | antiviral activity against West Nile Virus (West Nile Virus): no activity | cytotoxicity / change in cell viability (HUH7 cells): No significant change in cell viability | cytotoxicity / change in cell viability (Vero cells): No significant change in cell viability

Cc1cn([C@@H]2OC(CO)=C[C@@H]2O)c(=O)[nH]c1=O [HLB-0535066]
antiviral activity against ZIKV (ZIKV [1]): no activity | antiviral activity against West Nile Virus (West Nile Virus): no activity | change in cell viability (HUH7 cells): remained unchanged | cytotoxicity / change in cell viability (Vero cells): did not show any cytotoxicity

Nc1nc2c(ncn2[C@@H]2OC(CO)=C[C@@H]2O)c(=O)[nH]1 [HLB-0535072]
antiviral activity against ZIKV (ZIKV [1]): Antiviral activity was observed | antiviral activity against West Nile Virus (West Nile Virus): no activity | change in cell viability (HUH7 cells): slight decrease in cell viability | cytotoxicity / change in cell viability (Vero cells): No significant change in cell viability

Nc1ccn([C@@H]2OC(COP(=O)(O)OP(=O)(O)OP(=O)(O)O)=C[C@H]2O)c(=O)n1 [ddhCTP, 3′-Deoxy-3′,4′-didehydro-cytidine-5′-triphosphate]
inhibition of WNV polymerase (polymerase of WNV): inhibits | inhibition of HCV polymerase [3]: inhibits | inhibition of PV polymerase (polymerase of polio (PV)): weak inhibition | inhibition of SARS-CoV-2 polymerase (polymerase of SARS-CoV-2): inhibits | inhibition of DENV polymerase [4]: inhibits | inhibition of ZIKV polymerase (polymerase of ZIKV): inhibits

CC(C)OC(=O)[C@H](C)N[P@](=O)(OCC1=C[C@H](O)[C@H](n2cnc3c(=O)[nH]cnc32)O1)Oc1ccccc1 [HLB-0535083]
antiviral activity against ZIKV (ZIKV [1]): no activity | antiviral activity against West Nile Virus (West Nile Virus): no activity | change in cell viability (HUH7 cells): No change in cell viability | change in cell viability (Vero cells): No change in cell viability

Nc1ccn([C@@H]2OC(CO)=C[C@@H]2O)c(=O)n1 [HLB-0532246, reference compound]
decrease in cell viability (HUH7 cells): 10% | antiviral activity against ZIKV (ZIKV [2]; Vero cells): demonstrated antiviral activity | decrease in cell viability (Vero cells): 10% | antiviral activity against WNV (WNV; cell line not stated): inactive
